Test results published in US11319299B2, “Substituted carboxamides as inhibitors of WDR5 protein-protein binding” (PROPELLON THERAPEUTICS INC., priority 2016, dated 2022).

What follows are compounds tested against WDR5 (Homo sapiens (Human), UniProt P61964) (assay: Surface Plasmon Resonance (SPR) assay, KD and residence time). Settings: surface plasmon resonance (SPR) assay; read-out: WDR5 binding affinity (KD).
Type: binding

Compound | Kd [nM]
C[C@@H]1CN(c2cc(F)c(-c3cnc(N4CCOCC4)nc3)cc2NC(=O)c2ccccc2)C[C@H](C)N1C [Example 74, N-[4-fluoro-5-(2-morpholin-4-ylpyrimidin-5-yl)-2-[(3R,5S)-3,4,5-trimethylpiperazin-1-yl]phenyl]benzamide] | 253
COc1cc(C(=O)Nc2cc(-c3cnc(N4CCOCC4)nc3)c(F)cc2N2C[C@@H](C)N(C)[C@@H](C)C2)ccc1F [Example 75, 4-fluoro-N-[4-fluoro-5-(2-morpholin-4-ylpyrimidin-5-yl)-2-[(3R,5S)-3,4,5-trimethylpiperazin-1-yl]phenyl]-3-methoxybenzamide] | 40.9
COc1ccccc1C(=O)Nc1cc(-c2cnc(N3CCOCC3)nc2)c(F)cc1N1C[C@@H](C)N(C)[C@@H](C)C1 [Example 86, N-[4-fluoro-5-(2-morpholin-4-ylpyrimidin-5-yl)-2-[(3R,5S)-3,4,5-trimethylpiperazin-1-yl]phenyl]-2-methoxybenzamide] | 204
C[C@@H]1CN(c2cc(F)c(-c3cnc(N4CCOCC4)nc3)cc2NC(=O)c2ccc(F)cc2Cl)C[C@H](C)N1C [Example 87, 2-chloro-4-fluoro-N-[4-fluoro-5-(2-morpholin-4-ylpyrimidin-5-yl)-2-[(3R,5S)-3,4,5-trimethylpiperazin-1-yl]phenyl]benzamide] | 8.21
C[C@@H]1CN(c2cc(F)c(-c3cnc(N4CCOCC4)nc3)cc2NC(=O)c2cc(F)ccc2C(F)(F)F)C[C@H](C)N1C [Example 88, 5-fluoro-N-[4-fluoro-5-(2-morpholin-4-ylpyrimidin-5-yl)-2-[(3R,5S)-3,4,5-trimethylpiperazin-1-yl]phenyl]-2-(trifluoromethyl)benzamide] | 24.1
COc1cccc(C(=O)Nc2cc(-c3cnc(N4CCOCC4)nc3)c(F)cc2N2C[C@@H](C)N(C)[C@@H](C)C2)c1 [Example 89, N-[4-fluoro-5-(2-morpholin-4-ylpyrimidin-5-yl)-2-[(3R,5S)-3,4,5-trimethylpiperazin-1-yl]phenyl]-3-methoxybenzamide] | 33.8
C[C@@H]1CN(c2cc(F)c(-c3cc(Cl)c(O)c(C#N)c3)cc2NC(=O)c2c[nH]c(=O)cc2C(F)(F)F)C[C@H](C)N1C [Example 98, N-[5-(3-chloro-5-cyano-4-hydroxyphenyl)-4-fluoro-2-[(3R,5S)-3,4,5-trimethylpiperazin-1-yl]phenyl]-6-oxo-4-(trifluoromethyl)-1H-pyridine-3-carboxamide] | 19.5
C[C@@H]1CN(c2cc(F)c(-c3cnc(OCc4ccccc4)c(C#N)c3)cc2NC(=O)c2c[nH]c(=O)cc2C(F)(F)F)C[C@H](C)N1C [Example 99, N-[5-(5-cyano-6-phenylmethoxypyridin-3-yl)-4-fluoro-2-[(3R,5S)-3,4,5-trimethylpiperazin-1-yl]phenyl]-6-oxo-4-(trifluoromethyl)-1H-pyridine-3-carboxamide] | 11.1
C[C@@H]1CN(c2cc(F)c(-c3cnc(N4CCOCC4)nc3)cc2NC(=O)c2cccc3c2OCO3)C[C@H](C)N1C [Example 105, N-[4-fluoro-5-(2-morpholin-4-ylpyrimidin-5-yl)-2-[(3R,5S)-3,4,5-trimethylpiperazin-1-yl]phenyl]-1,3-benzodioxole-4-carboxamide] | 466
COc1ccc(C(=O)Nc2cc(-c3cnc(N4CCOCC4)nc3)c(F)cc2N2C[C@@H](C)N(C)[C@@H](C)C2)cc1 [Example 106, N-[4-fluoro-5-(2-morpholin-4-ylpyrimidin-5-yl)-2-[(3R,5S)-3,4,5-trimethylpiperazin-1-yl]phenyl]-4-methoxybenzamide] | 5400
C[C@@H]1CN(c2cc(F)c(-c3cnc(N4CCOCC4)nc3)cc2NC(=O)c2ccc(F)cc2)C[C@H](C)N1C [Example 107, 4-fluoro-N-[4-fluoro-5-(2-morpholin-4-ylpyrimidin-5-yl)-2-[(3R,5S)-3,4,5-trimethylpiperazin-1-yl]phenyl]benzamide] | 137
C[C@@H]1CN(c2cc(F)c(-c3cnc(N4CCOCC4)nc3)cc2NC(=O)c2ccccc2Cl)C[C@H](C)N1C [Example 109, 2-chloro-N-[4-fluoro-5-(2-morpholin-4-ylpyrimidin-5-yl)-2-[(3R,5S)-3,4,5-trimethylpiperazin-1-yl]phenyl]benzamide] | 175
COc1cccc(C(=O)Nc2cc(-c3cnc(N4CCOCC4)nc3)c(F)cc2N2C[C@@H](C)N(C)[C@@H](C)C2)c1F [Example 110, 2-fluoro-N-[4-fluoro-5-(2-morpholin-4-ylpyrimidin-5-yl)-2-[(3R,5S)-3,4,5-trimethylpiperazin-1-yl]phenyl]-3-methoxybenzamide] | 1730
C[C@@H]1CN(c2cc(F)c(-c3cnc(N4CCOCC4)nc3)cc2NC(=O)c2ccc(F)c(F)c2)C[C@H](C)N1C [Example 111, 3,4-difluoro-N-[4-fluoro-5-(2-morpholin-4-ylpyrimidin-5-yl)-2-[(3R,5S)-3,4,5-trimethylpiperazin-1-yl]phenyl]benzamide] | 70.6

These reach a lower Kd. Values come first.

Kd [nM] | Compound
7.18 | C[C@@H]1CN(c2cc(F)c(C3=CCNCC3)cc2NC(=O)c2c[nH]c(=O)cc2C(F)(F)F)C[C@H](C)N1C [Example 95, N-[4-fluoro-2-[(3R,5S)-3,4,5-trimethylpiperazin-1-yl]-5-(1,2,3,6-tetrahydropyridin-4-yl)phenyl]-6-oxo-4-(trifluoromethyl)-1H-pyridine-3-carboxamide]
4.43 | C[C@@H]1CN(c2cc(F)c(-c3cnc(N4CCOCC4)nc3)cc2NC(=O)c2n[nH]c(=O)cc2C(F)(F)F)C[C@H](C)N1C [Example 77, N-[4-fluoro-5-(2-morpholin-4-ylpyrimidin-5-yl)-2-[(3R,5S)-3,4,5-trimethylpiperazin-1-yl]phenyl]-6-oxo-4-(trifluoromethyl)-1H-pyridazine-3-carboxamide]
4.06 | C[C@@H]1CN(c2cc(F)c(C3=CCOCC3)cc2NC(=O)c2c[nH]c(=O)cc2C(F)(F)F)C[C@H](C)N1C [Example 94, N-[5-(3,6-dihydro-2H-pyran-4-yl)-4-fluoro-2-[(3R,5S)-3,4,5-trimethylpiperazin-1-yl]phenyl]-6-oxo-4-(trifluoromethyl)-1H-pyridine-3-carboxamide]
2.44 | COc1ccc(-c2cc(NC(=O)c3c[nH]c(=O)cc3C(F)(F)F)c(N3C[C@@H](C)N(C)[C@@H](C)C3)cc2F)cc1 [Example 112, N-[4-fluoro-5-(4-methoxyphenyl)-2-[(3R,5S)-3,4,5-trimethylpiperazin-1-yl]phenyl]-6-oxo-4-(trifluoromethyl)-1H-pyridine-3-carboxamide]
2.41 | COc1cc(-c2cc(NC(=O)c3c[nH]c(=O)cc3C(F)(F)F)c(N3C[C@@H](C)N(C)[C@@H](C)C3)cc2F)cnc1OC [Example 104, N-[5-(5,6-dimethoxypyridin-3-yl)-4-fluoro-2-[(3R,5S)-3,4,5-trimethylpiperazin-1-yl]phenyl]-6-oxo-4-(trifluoromethyl)-1H-pyridine-3-carboxamide]
2.08 | C[C@@H]1CN(c2cc(F)c(-c3cccc(C#N)c3)cc2NC(=O)c2c[nH]c(=O)cc2C(F)(F)F)C[C@H](C)N1C [Example 102, N-[5-(3-cyanophenyl)-4-fluoro-2-[(3R,5S)-3,4,5-trimethylpiperazin-1-yl]phenyl]-6-oxo-4-(trifluoromethyl)-1H-pyridine-3-carboxamide]
2.07 | C[C@@H]1CN(c2cc(F)c(-c3cnc(N4CCOCC4)nc3)cc2NC(=O)c2cc(Cl)cc(Cl)c2)C[C@H](C)N1C [Example 76, 3,5-dichloro-N-[4-fluoro-5-(2-morpholin-4-ylpyrimidin-5-yl)-2-[(3R,5S)-3,4,5-trimethylpiperazin-1-yl]phenyl]benzamide]
0.858 | C[C@@H]1CN(c2cc(F)c(-c3ccc(OCC4CC4)cc3)cc2NC(=O)c2c[nH]c(=O)cc2C(F)(F)F)C[C@H](C)N1C [Example 113, N-[5-[4-(cyclopropylmethoxy)phenyl]-4-fluoro-2-[(3R,5S)-3,4,5-trimethylpiperazin-1-yl]phenyl]-6-oxo-4-(trifluoromethyl)-1H-pyridine-3-carboxamide]
0.703 | C[C@@H]1CN(c2cc(F)c(-c3cccc(N4CCOCC4)c3)cc2NC(=O)c2c[nH]c(=O)cc2C(F)(F)F)C[C@H](C)N1C [Example 85, N-[4-fluoro-5-(3-morpholin-4-ylphenyl)-2-[(3R,5S)-3,4,5-trimethylpiperazin-1-yl]phenyl]-6-oxo-4-(trifluoromethyl)-1H-pyridine-3-carboxamide]
0.508 | C[C@@H]1CN(c2cc(F)c(-c3ccc(C#N)cc3)cc2NC(=O)c2c[nH]c(=O)cc2C(F)(F)F)C[C@H](C)N1C [Example 100, N-[5-(4-cyanophenyl)-4-fluoro-2-[(3R,5S)-3,4,5-trimethylpiperazin-1-yl]phenyl]-6-oxo-4-(trifluoromethyl)-1H-pyridine-3-carboxamide]
0.391 | C[C@@H]1CN(c2cc(F)c(-c3ccnc(N4CCOCC4)c3)cc2NC(=O)c2c[nH]c(=O)cc2C(F)(F)F)C[C@H](C)N1C [Example 83, N-[4-fluoro-5-(2-morpholin-4-ylpyridin-4-yl)-2-[(3R,5S)-3,4,5-trimethylpiperazin-1-yl]phenyl]-6-oxo-4-(trifluoromethyl)-1H-pyridine-3-carboxamide]
0.338 | COCCOc1ccc(-c2cc(NC(=O)c3c[nH]c(=O)cc3C(F)(F)F)c(N3C[C@@H](C)N(C)[C@@H](C)C3)cc2F)cn1 [Example 84, N-[4-fluoro-5-[6-(2-methoxyethoxy)pyridin-3-yl]-2-[(3R,5S)-3,4,5-trimethylpiperazin-1-yl]phenyl]-6-oxo-4-(trifluoromethyl)-1H-pyridine-3-carboxamide]
0.32 | C[C@@H]1CN(c2cc(F)c(-c3ccc(OC4CCOCC4)nc3)cc2NC(=O)c2c[nH]c(=O)cc2C(F)(F)F)C[C@H](C)N1C [Example 101, N-[4-fluoro-5-[6-(oxan-4-yloxy)pyridin-3-yl]-2-[(3R,5S)-3,4,5-trimethylpiperazin-1-yl]phenyl]-6-oxo-4-(trifluoromethyl)-1H-pyridine-3-carboxamide]
0.168 | C[C@@H]1CN(c2cc(F)c(-c3cnc(N(C)C)nc3)cc2NC(=O)c2c[nH]c(=O)cc2C(F)(F)F)C[C@H](C)N1C [Example 103, N-[5-[2-(dimethylamino)pyrimidin-5-yl]-4-fluoro-2-[(3R,5S)-3,4,5-trimethylpiperazin-1-yl]phenyl]-6-oxo-4-(trifluoromethyl)-1H-pyridine-3-carboxamide]
